Results on 22 molecules are retold here after ChEMBL document CHEMBL2311426, “Synthesis and antibacterial activity of novel water-soluble nocathiacin analogs” (Bioorg Med Chem Lett, 2013).

A word on the solubility: it is the concentration that dissolves in the medium under given conditions. Higher therefore signals a readily soluble substance.

The nature of data set [1]: Aqueous solubility of the compound in water containing 5% dextrose at pH 4. Type of data set: physicochemical.
Data set [2] concerns Staphylococcus aureus. The data set can be described thus: Antibacterial activity against Staphylococcus aureus MB2865 by turbidity method. Type of data set: functional. The following applies: read-out: MIC100.
In data set [3] the test system is Enterococcus faecalis. The data set is described as follows: Antibacterial activity against Enterococcus faecalis C21560 by turbidity method. As to conditions: read-out: MIC100. Type of data set: functional.
Data set [4] has as its system Streptococcus pneumoniae. The data set can be described thus: Antibacterial activity against Streptococcus pneumoniae CL2883 by turbidity method. Type of data set: functional. The following applies: read-out: MIC100.

≈ marks a conversion by molar mass, not a printed value. A value given as a limit tells only on which side of the number the result lay.

In the case of `CO/C(C)=C1/NC(=O)[C@H]([C@@H](C)O)NC(=O)c2csc(n2)-c2cc(O)c(-c3nc(CNC(=O)NCCN(C)C)cs3)nc2-c2csc(n2)[C@@H]2COC(=O)c3c4c5c(cccc5n3O)COC(=O)[C@@H](O[C@H]3C[C@](C)(O)[C@H](N(C)C)[C@H](C)O3)[C@@H](OC4)[C@H](NC(=O)c3csc1n3)c1nc(cs1)C(=O)N2.O=C(O)C(F)(F)F`, in data set [1], the solubility is over 10000 µg/mL.
On the same count and under the same terms, next, `CO/C(C)=C1/NC(=O)[C@H]([C@@H](C)O)NC(=O)c2csc(n2)-c2cc(O)c(-c3nc(CNC(=O)CCN4CCOCC4)cs3)nc2-c2csc(n2)[C@@H]2COC(=O)c3c4c5c(cccc5n3O)COC(=O)[C@@H](O[C@H]3C[C@](C)(O)[C@H](N(C)C)[C@H](C)O3)[C@@H](OC4)[C@H](NC(=O)c3csc1n3)c1nc(cs1)C(=O)N2.O=C(O)C(F)(F)F`: over 10000 µg/mL; `CO/C(C)=C1/NC(=O)[C@H]([C@@H](C)O)NC(=O)c2csc(n2)-c2cc(O)c(-c3nc(CNC(=O)CN4CCN(C)CC4)cs3)nc2-c2csc(n2)[C@@H]2COC(=O)c3c4c5c(cccc5n3O)COC(=O)[C@@H](O[C@H]3C[C@](C)(O)[C@H](N(C)C)[C@H](C)O3)[C@@H](OC4)[C@H](NC(=O)c3csc1n3)c1nc(cs1)C(=O)N2.O=C(O)C(F)(F)F`: over 10000 µg/mL; `CO/C(C)=C1/NC(=O)[C@H]([C@@H](C)O)NC(=O)c2csc(n2)-c2cc(O)c(-c3nc(CNC(=O)CN4CCOCC4)cs3)nc2-c2csc(n2)[C@@H]2COC(=O)c3c4c5c(cccc5n3O)COC(=O)[C@@H](O[C@H]3C[C@](C)(O)[C@H](N(C)C)[C@H](C)O3)[C@@H](OC4)[C@H](NC(=O)c3csc1n3)c1nc(cs1)C(=O)N2.O=C(O)C(F)(F)F`: over 10000 µg/mL.
On the same count and under the same terms, the result for `CO/C(C)=C1/NC(=O)[C@H]([C@@H](C)O)NC(=O)c2csc(n2)-c2cc(O)c(-c3nc(CNC(=O)CN(C)C)cs3)nc2-c2csc(n2)[C@@H]2COC(=O)c3c4c5c(cccc5n3O)COC(=O)[C@@H](O[C@H]3C[C@](C)(O)[C@H](N(C)C)[C@H](C)O3)[C@@H](OC4)[C@H](NC(=O)c3csc1n3)c1nc(cs1)C(=O)N2.O=C(O)C(F)(F)F` reads over 10000 µg/mL; that for `CO/C(C)=C1/NC(=O)[C@H]([C@@H](C)O)NC(=O)c2csc(n2)-c2cc(O)c(-c3nc(CNCc4cncnc4)cs3)nc2-c2csc(n2)[C@@H]2COC(=O)c3c4c5c(cccc5n3O)COC(=O)[C@@H](O[C@H]3C[C@](C)(O)[C@H](N(C)C)[C@H](C)O3)[C@@H](OC4)[C@H](NC(=O)c3csc1n3)c1nc(cs1)C(=O)N2.O=C(O)C(F)(F)F`, over 10000 µg/mL; that for `CO/C(C)=C1/NC(=O)[C@H]([C@@H](C)O)NC(=O)c2csc(n2)-c2cc(O)c(-c3nc(CN(CCO)CCO)cs3)nc2-c2csc(n2)[C@@H]2COC(=O)c3c4c5c(cccc5n3O)COC(=O)[C@@H](O[C@H]3C[C@](C)(O)[C@H](N(C)C)[C@H](C)O3)[C@@H](OC4)[C@H](NC(=O)c3csc1n3)c1nc(cs1)C(=O)N2.O=C(O)C(F)(F)F`, over 10000 µg/mL.
Turning to `CO/C(C)=C1/NC(=O)[C@H]([C@@H](C)O)NC(=O)c2csc(n2)-c2cc(O)c(-c3nc(CNCC(C)(C)N4CCCCC4)cs3)nc2-c2csc(n2)[C@@H]2COC(=O)c3c4c5c(cccc5n3O)COC(=O)[C@@H](O[C@H]3C[C@](C)(O)[C@H](N(C)C)[C@H](C)O3)[C@@H](OC4)[C@H](NC(=O)c3csc1n3)c1nc(cs1)C(=O)N2.O=C(O)C(F)(F)F`, in data set [1], the solubility was over 10000 µg/mL.
Take `CO/C(C)=C1/NC(=O)[C@H]([C@@H](C)O)NC(=O)c2csc(n2)-c2cc(O)c(-c3nc(CNCCO)cs3)nc2-c2csc(n2)[C@@H]2COC(=O)c3c4c5c(cccc5n3O)COC(=O)[C@@H](O[C@H]3C[C@](C)(O)[C@H](N(C)C)[C@H](C)O3)[C@@H](OC4)[C@H](NC(=O)c3csc1n3)c1nc(cs1)C(=O)N2.O=C(O)C(F)(F)F`: the solubility in data set [1] was over 10000 µg/mL.
On the same count and under the same terms, the result for `CO/C(C)=C1/NC(=O)[C@H]([C@@H](C)O)NC(=O)c2csc(n2)-c2cc(O)c(-c3nc(CNCC(O)CO)cs3)nc2-c2csc(n2)[C@@H]2COC(=O)c3c4c5c(cccc5n3O)COC(=O)[C@@H](O[C@H]3C[C@](C)(O)[C@H](N(C)C)[C@H](C)O3)[C@@H](OC4)[C@H](NC(=O)c3csc1n3)c1nc(cs1)C(=O)N2.O=C(O)C(F)(F)F` (some centres undefined) reads over 10000 µg/mL; that for `CO/C(C)=C1/NC(=O)[C@H]([C@@H](C)O)NC(=O)c2csc(n2)-c2cc(O)c(-c3nc(CNCC[C@H](O)[C@H](O)CO)cs3)nc2-c2csc(n2)[C@@H]2COC(=O)c3c4c5c(cccc5n3O)COC(=O)[C@@H](O[C@H]3C[C@](C)(O)[C@H](N(C)C)[C@H](C)O3)[C@@H](OC4)[C@H](NC(=O)c3csc1n3)c1nc(cs1)C(=O)N2.O=C(O)C(F)(F)F`, over 10000 µg/mL; that for `CO/C(C)=C1/NC(=O)[C@H]([C@@H](C)O)NC(=O)c2csc(n2)-c2cc(O)c(-c3nc(CN(C)C)cs3)nc2-c2csc(n2)[C@@H]2COC(=O)c3c4c5c(cccc5n3O)COC(=O)[C@@H](O[C@H]3C[C@](C)(O)[C@H](N(C)C)[C@H](C)O3)[C@@H](OC4)[C@H](NC(=O)c3csc1n3)c1nc(cs1)C(=O)N2.O=C(O)C(F)(F)F`, over 10000 µg/mL.
For `CO/C(C)=C1/NC(=O)[C@H]([C@@H](C)O)NC(=O)c2csc(n2)-c2cc(O)c(-c3nc(CNC(=O)NCCc4cnc[nH]4)cs3)nc2-c2csc(n2)[C@@H]2COC(=O)c3c4c5c(cccc5n3O)COC(=O)[C@@H](O[C@H]3C[C@](C)(O)[C@H](N(C)C)[C@H](C)O3)[C@@H](OC4)[C@H](NC(=O)c3csc1n3)c1nc(cs1)C(=O)N2`, the MIC turned out to be 0.125 µg/mL (≈ 0.0838 µM) in data set [2] and 0.5 µg/mL (≈ 0.335 µM) in data set [3].
For `CO/C(C)=C1/NC(=O)[C@H]([C@@H](C)O)NC(=O)c2csc(n2)-c2cc(O)c(-c3nc(CNC(=O)NCCN(C)C)cs3)nc2-c2csc(n2)[C@@H]2COC(=O)c3c4c5c(cccc5n3O)COC(=O)[C@@H](O[C@H]3C[C@](C)(O)[C@H](N(C)C)[C@H](C)O3)[C@@H](OC4)[C@H](NC(=O)c3csc1n3)c1nc(cs1)C(=O)N2` the same measures were 0.125 µg/mL (≈ 0.0851 µM) and 0.5 µg/mL (≈ 0.34 µM).
For `CO/C(C)=C1/NC(=O)[C@H]([C@@H](C)O)NC(=O)c2csc(n2)-c2cc(O)c(-c3nc(CNC(=O)NCC(O)CO)cs3)nc2-c2csc(n2)[C@@H]2COC(=O)c3c4c5c(cccc5n3O)COC(=O)[C@@H](O[C@H]3C[C@](C)(O)[C@H](N(C)C)[C@H](C)O3)[C@@H](OC4)[C@H](NC(=O)c3csc1n3)c1nc(cs1)C(=O)N2` (some centres undefined), the values for the MIC in data set [2], in data set [4] and in data set [3] were 0.06 µg/mL (≈ 0.0408 µM), 0.015 µg/mL (≈ 0.0102 µM) and 0.5 µg/mL (≈ 0.34 µM), respectively.
Turning to `CO/C(C)=C1/NC(=O)[C@H]([C@@H](C)O)NC(=O)c2csc(n2)-c2cc(O)c(-c3nc(CNC(=O)C(N)=O)cs3)nc2-c2csc(n2)[C@@H]2COC(=O)c3c4c5c(cccc5n3O)COC(=O)[C@@H](O[C@H]3C[C@](C)(O)[C@H](N(C)C)[C@H](C)O3)[C@@H](OC4)[C@H](NC(=O)c3csc1n3)c1nc(cs1)C(=O)N2`, the values for the MIC in data set [2], in data set [4] and in data set [3] were 0.0075 µg/mL (≈ 0.00526 µM), 0.00457 µg/mL (≈ 0.00321 µM) and 0.0075 µg/mL (≈ 0.00526 µM), respectively.
Take `CO/C(C)=C1/NC(=O)[C@H]([C@@H](C)O)NC(=O)c2csc(n2)-c2cc(O)c(-c3nc(CNC(=O)C(NC(N)=O)c4ccc(O)cc4)cs3)nc2-c2csc(n2)[C@@H]2COC(=O)c3c4c5c(cccc5n3O)COC(=O)[C@@H](O[C@H]3C[C@](C)(O)[C@H](N(C)C)[C@H](C)O3)[C@@H](OC4)[C@H](NC(=O)c3csc1n3)c1nc(cs1)C(=O)N2` (some centres undefined): the MIC in data set [2] and in data set [3] was over 1 µg/mL throughout.
In the case of `CO/C(C)=C1/NC(=O)[C@H]([C@@H](C)O)NC(=O)c2csc(n2)-c2cc(O)c(-c3nc(CN(CCO)CCO)cs3)nc2-c2csc(n2)[C@@H]2COC(=O)c3c4c5c(cccc5n3O)COC(=O)[C@@H](O[C@H]3C[C@](C)(O)[C@H](N(C)C)[C@H](C)O3)[C@@H](OC4)[C@H](NC(=O)c3csc1n3)c1nc(cs1)C(=O)N2`, the MIC in data set [2] was determined as 0.06 µg/mL (≈ 0.0416 µM); in data set [4], 0.0075 µg/mL (≈ 0.0052 µM); in data set [3] it was 0.12 µg/mL (≈ 0.0832 µM).
In the case of `CO/C(C)=C1/NC(=O)[C@H]([C@@H](C)O)NC(=O)c2csc(n2)-c2cc(O)c(-c3nc(CNCC(C)(C)N4CCOCC4)cs3)nc2-c2csc(n2)[C@@H]2COC(=O)c3c4c5c(cccc5n3O)COC(=O)[C@@H](O[C@H]3C[C@](C)(O)[C@H](N(C)C)[C@H](C)O3)[C@@H](OC4)[C@H](NC(=O)c3csc1n3)c1nc(cs1)C(=O)N2`, the MIC worked out at 0.06 µg/mL (≈ 0.0401 µM) in data set [2], 0.00046 µg/mL (≈ 0.000308 µM) in data set [4] and 0.03 µg/mL (≈ 0.0201 µM) in data set [3].
Regarding `CO/C(C)=C1/NC(=O)[C@H]([C@@H](C)O)NC(=O)c2csc(n2)-c2cc(O)c(-c3nc(CNCC(O)CO)cs3)nc2-c2csc(n2)[C@@H]2COC(=O)c3c4c5c(cccc5n3O)COC(=O)[C@@H](O[C@H]3C[C@](C)(O)[C@H](N(C)C)[C@H](C)O3)[C@@H](OC4)[C@H](NC(=O)c3csc1n3)c1nc(cs1)C(=O)N2` (some centres undefined), the MIC in data set [2] stood at 0.06 µg/mL (≈ 0.042 µM); in data set [4] it was 0.0075 µg/mL (≈ 0.00525 µM); in data set [3], 0.25 µg/mL (≈ 0.175 µM).
Take `CO/C(C)=C1/NC(=O)[C@H]([C@@H](C)O)NC(=O)c2csc(n2)-c2cc(O)c(-c3nc(CNCC[C@H](O)[C@H](O)CO)cs3)nc2-c2csc(n2)[C@@H]2COC(=O)c3c4c5c(cccc5n3O)COC(=O)[C@@H](O[C@H]3C[C@](C)(O)[C@H](N(C)C)[C@H](C)O3)[C@@H](OC4)[C@H](NC(=O)c3csc1n3)c1nc(cs1)C(=O)N2`: the MIC in data set [2] came out at 0.125 µg/mL (≈ 0.0849 µM); in data set [4], 0.015 µg/mL (≈ 0.0102 µM); in data set [3], 1 µg/mL (≈ 0.679 µM).
Consider `C=C(NC(=O)c1csc(-c2nc3c(cc2O)-c2nc(cs2)C(=O)N[C@@H]([C@@H](C)O)C(=O)N/C(=C(\C)OC)c2nc(cs2)C(=O)N[C@@H]2c4nc(cs4)C(=O)N[C@@H](COC(=O)c4c5c6c(cccc6n4O)COC(=O)[C@@H](O[C@H]4C[C@](C)(O)[C@H](N(C)C)[C@H](C)O4)[C@H]2OC5)c2nc-3cs2)n1)C(N)=O` [MJ347-81F4 A], for which the MIC in data set [2] is 0.007 µg/mL (≈ 0.00487 µM); in data set [4] it was 0.002 µg/mL (≈ 0.00139 µM); in data set [3] it was 0.03 µg/mL (≈ 0.0209 µM).
